From US8940784B2, “Water-soluble CC-1065 analogs and their conjugates” (priority 2006, dated 2015)
Counter-ions that a name gives are not always drawn.

Columns and labels:
[1] = tested on: human lung carcinoma cell line A549; experiment: In vitro cytotoxicity, clone forming assay in A549 cells; type: cell-based; conditions: A549, 24 h exposure, 12 days cultivation
Experimental: In vitro cytotoxicity of compounds (+)-8a-e and (+)-4a-e: Adherent cells of line A549 were sown in triplicate in 6 multiwell plates at concentrations of 10^2, 10^3, 10^4, and 10^5 cells per cavity. Culture medium was removed after 24 h and cells were washed hi the incubation medium Ultraculture (UC, serum-free special medium, purchased from BioWhittaker Europe, Verviers, Belgium). Incubation with compounds (+)-8a-e and (+)-4a-e was then performed in Ultraculture medium at various concentrations for 24 h. All substances were used as freshly prepared solutions in DMSO (Merck, Darmstadt, Germany) diluted with incubation medium to a final concentration of 1% DMSO in the wells. After 24 h of exposure the test substance was removed and the cells were washed with fresh medium. Cultivation was done at 37° C. and 7.5% CO2 in air for 12 days. The medium was removed and the clones were dried and stained with Löffler's methylene blue (Merck, Darmstadt, Germany). They were then counted macroscopically.
The IC50 values are based on the relative clone forming rate, which was determined according to the following formula: relative clone forming rate [%]=100×(number of clones counted after exposure)/(number of clones counted in the control).
Liberation of the drugs from their glycosidic prodrugs was achieved by addition of 4.0 U·mL^−1 β-D-galactosidase (EC 3.2.1.23, Grade X, purchased from Sigma Germany, Deisenhofen, Germany) to the cells during incubation with the substances.

[2] = tested on: MDA-MB-231 cells (estrogen-independent human breast cancer cell line); experiment: ADEPT in vivo experiment, orthotopic breast tumor SCID mouse model
Experimental: Compound (+)-8a was evaluated in an orthotopic breast tumor SCID mouse model using the ADEPT concept. Female SCID mice were inoculated with 1×10^6 MDA-MB-231 cells (estrogen-independent human breast cancer cell line) suspended in 25 μl sterile PBS in the mammary fad pat of the 4th mammary complex. Tumors were allowed to grow and ADEPT therapy was started after tumor volumes reached a detectable size. Mice were treated according to the treatment schedule in FIG. 17 and received two treatment cycles of a monoclonal anti-human urokinase plasminogen activator receptor (uPAR) antibody conjugated with β-Galactosidase, uPAR*β-Gal, in PBS followed by three injections with conjugate (+)-8a in 1% DMSO/NaCl solution. Control groups received either antibody-enzyme and 1% DMSO/NaCl solution (antibody-enzyme only group), PBS and conjugate (conjugate only group), or PBS and 1% DMSO/NaCl solution (control group).
In vivo evaluation of compound (+)-8a in an orthotopic breast tumor SCID mouse model using the ADEPT concept: Before tumor cell implantation, female SCID mice were anesthetized by peritoneal injection of 75 mg/kg ketamine hydrochloride with 15 mg/kg xylazine. 1×10^6 MDA-MB-231 cells (estrogen-independent human breast cancer cell line) suspended in 25 μl sterile phosphate-buffered saline (PBS) were then implanted into the mammary fad pat of the 4th mammary complex. After implantation, mice were inspected daily for body weight loss, general condition, and tumor formation. On day 21, animals were randomized in groups of 5-12 mice (control, antibody-enzyme only, prodrug only, and ADEPT therapy). On days 22 and 30, mice were injected intravenously with PBS (control, prodrug only groups) or 50 μg of a monoclonal anti-human urokinase plasminogen activator receptor (uPAR) antibody conjugated with β-Galactosidase, uPAR*β-Gal, in PBS (antibody-enzyme only, ADEPT therapy groups). On days 24, 26, 28, 32, 34, and 36, mice were injected intravenously with 1% DMSO/NaCl solution (control, antibody-enzyme only groups) or 104 μg of (+)-8a in 1% DMSO/NaCl solution (prodrug only, ADEPT therapy groups). Mice were sacrificed on day 38 and tumors were excised, weighed, placed in phosphate-buffered 4% formalin for 16 hours at room temperature, and embedded in paraffin. Tissue sections (2.5 μm) were obtained, stained with hematoxylin and eosin (H & E), and inspected by routine microscopic examinations. For immunohistochemistry, 2.5 μm sections from formalin-fixed and paraffin-embedded tissues, were mounted on slides, deparaffinized in xylene and rehydrated in ethanol/water dilutions. Slides for Ki67 staining were pretreated by boiling in a microwave oven (5×5 min) in citrate buffer (pH 6.0) for antigen retrieval. Endogenous peroxidases were inactivated by treatment with 3% hydrogen peroxide for 10 min. Tris-buffered 10% rabbit serum solution (Dako, Hamburg, Germany, No. X 0902) was then added to block nonspecific protein binding and slides were incubated with murine anti-human Ki67 (Dianova, Hamburg, Germany, No. dia 505) for 60 min (2 μg/ml) followed by exposure to biotinylated rabbit anti-mouse F(ab′)2-fragment (Dako, No. E 0413, 16.8 μg/ml) for 30 min. Sections were then incubated with avidin-peroxidase solution (Dako, No. P 364), stained with aminoethylcarbazole (AEC substrate solution, Sigma), rinsed in water, and finally counterstained with hematoxylin.

[3] = with addition of 4.0 U/mL β-D-galactosidase
[4] = without addition of β-D-galactosidase

SMILES | IC50 [1, 3] [nM] | IC50 [1, 4] [nM] | also measured
COc1cc2[nH]c(C(=O)N3C[C@@H]([C@@H](C)Cl)c4c3cc(O[C@@H]3O[C@H](CO)[C@H](O)[C@H](O)[C@H]3O)c3ccccc43)cc2cc1OCCN(C)C [(+)-8c, [(+)-(1S,10R)-1-(10-Chloroethyl)-3-[(5-(2-(N,N-dimethylamino)ethoxy)-6-methoxy-indol-2-yl)carbonyl]-1,2-dihydro-3H-benz[e]indol-5-yl]-β-D-galactopyranoside] | 0.22 | 940 | 
C[C@@H](Cl)[C@@H]1CN(C(=O)c2cc3cc(OCCN(C)C)ccc3[nH]2)c2cc(O[C@@H]3O[C@H](CO)[C@H](O)[C@H](O)[C@H]3O)c3ccccc3c21 [(+)-8a, [(1,10)-anti-1-(10-Chloroethyl)-3-[(5-(2-(N,N-dimethylamino)ethoxy)-indol-2-yl)carbonyl]-1,2-dihydro-3H-benz[e]indol-5-yl]-β-D-galactopyranoside] |  |  | average primary tumor volume ([2]; ADEPT therapy (uPAR*β-Gal followed by (+)-8a i.v.), after one treatment cycle): 0.23±0.07 cm^3; mean tumor volume ([2]; ADEPT therapy (uPAR*β-Gal followed by (+)-8a i.v.), after two treatment cycles): 0.33±0.13 cm^3; necrotic tissue within tumors ([2]; ADEPT therapy versus vehicle-treated mice): more necrotic tissue within tumors; tolerability ([2]; ADEPT therapy, all animals): well tolerated; blood parameters ([2]; treated mice compared to controls): not altered; inhibitory effect on tumor growth with respect to vehicle control ([2]; treatment with the substance alone (antibody-enzyme only or conjugate only group)): no inhibitory effect; IC50 ([1]; with addition of 4.0 U/mL β-D-galactosidase, listed as (1S,10R)-8a): 0.75 nM; IC50 ([1]; without addition of β-D-galactosidase, listed as (1S,10R)-8a): 3600 nM
CC(Cl)C1CN(C(=O)c2cc3cc(OCCN4CCOCC4)ccc3[nH]2)c2cc(O)c3ccccc3c21 (single isomer, unassigned; (+)) [(+)-4b, (+)-{(1,10)-anti-1-(10-Chloroethyl)-5-hydroxy-3-[(5-(2-(morpholin-4-yl)ethoxy)indol-2-yl)carbonyl]-1,2-dihydro-3H-benz[e]indole-hydrochloride}] |  | 3.7 | 
C[C@@H](Cl)[C@@H]1CN(C(=O)c2cc3cc(NC(=O)CN(C)C)ccc3[nH]2)c2cc(O[C@@H]3O[C@H](CO)[C@H](O)[C@H](O)[C@H]3O)c3ccccc3c21 [(+)-8e] | 5.9 | 7700 | 
CC(Cl)C1CN(C(=O)c2cc3cc(OCCN(C)C)ccc3[nH]2)c2cc(O)c3ccccc3c21 (single isomer, unassigned; (+)) [(+)-4a, (1,10)-anti-1-(10-Chloroethyl)-5-hydroxy-3-[(5-(2-(N,N-dimethylamino)ethoxy)indol-2-yl)carbonyl]-1,2-dihydro-3H-benz[e]indole-hydrochloride] |  | 0.75 | 
CC(Cl)C1CN(C(=O)c2cc3cc(OCCN4CCOCC4)ccc3[nH]2)c2cc(O[C@@H]3O[C@H](CO)[C@H](O)[C@H](O)[C@H]3O)c3ccccc3c21 (single isomer, unassigned; (+)) [(+)-8b, [(+)-(1,10)-anti-1-(10-Chloroethyl)-3-[(5-(2-(morpholin-4-yl)ethoxy)-indol-2-yl)carbonyl]-1,2-dihydro-3H-benz[e]indol-5-yl]-β-D-galactopyranoside] | 2.5 | 1500 | 
CC(Cl)C1CN(C(=O)c2cc3cc(OCC4CCN(C)CC4)ccc3[nH]2)c2cc(O)c3ccccc3c21 (single isomer, unassigned; (+)) [(+)-4d, (+)-{(1,10)-anti-1-(10-Chloroethyl)-5-hydroxy-3-[(5-((1-methylpiperidin-4-yl)methoxy)indol-2-yl)carbonyl]-1,2-dihydro-3H-benz[e]indole-hydrochloride}] |  | 0.8 | 
COc1cc2[nH]c(C(=O)N3CC(C(C)Cl)c4c3cc(O)c3ccccc43)cc2cc1OCCN(C)C (single isomer, unassigned; (+)) [(+)-4c, (+)-{(1,10)-anti-1-(10-Chloroethyl)-5-hydroxy-3-[(5-(2-(N,N-dimethylamino)ethoxy)-6-methoxy-indol-2-yl)carbonyl]-1,2-dihydro-3H-benz[e]indole-hydrochloride}] |  | 0.2 | 
CC(Cl)C1CN(C(=O)c2cc3cc(OCC4CCN(C)CC4)ccc3[nH]2)c2cc(O[C@@H]3O[C@H](CO)[C@H](O)[C@H](O)[C@H]3O)c3ccccc3c21 (single isomer, unassigned; (+)) [(+)-8d, [(+)-(1,10)-anti-1-(10-Chloroethyl)-3-[(5-((1-methylpiperidin-4-yl)methoxy)-indol-2-yl)carbonyl]-1,2-dihydro-3H-benz[e]indol-5-yl]-β-D-galactopyranoside] | 0.75 | 830 | 
CC(Cl)C1CN(C(=O)c2cc3cc(NC(=O)CN(C)C)ccc3[nH]2)c2cc(O)c3ccccc3c21 (single isomer, unassigned; (+)) [(+)-4e] |  | 3.8 | 
C[C@@H](Cl)[C@@H]1CN(C(=O)c2cc3cc(OCCN(C)C)ccc3[nH]2)c2cc(O[C@@H]3O[C@H](CO)[C@H](O)[C@H](O)[C@H]3O)c3ccccc3c21 [(1S,10R)-8a and (1R,10S)-8a′, [(1,10)-anti-1-(10-Chloroethyl)-3-[(5-(2-(N,N-dimethylamino)ethoxy)-indol-2-yl)carbonyl]-1,2-dihydro-3H-benz[e]indol-5-yl]-β-D-galactopyranoside] | 1.2 | 7900 | 
